Assays:
CFA-stimulated rats [1] = assay: CFA inflammatory pain model, mechanical allodynia (von Frey test); assay type: in vivo; set-up: key to Mechanical Allodynia, change in sensitivity compared to CFA alone / Mechanical Allodynia, significant reduction in pain behavior vs CFA alone: NS = no statistically significant change in sensitivity compared to CFA alone; + = statistically significant change in sensitivity compared to CFA alone, p < 0.05
Method: (§1) Response to peripheral inflammatory stimulus can be modeled by administering complete Freund's adjuvant (CFA), a suspension of desiccated mycobacterium in paraffin oil and mannide monooleate, by subcutaneous injection into the rat's footpad. The introduction of CFA to peripheral tissues leads to a rapid, sustained, inflammatory reaction in the treated tissue within 24 hours. Subcutaneous administration of CFA in the plantar region of the paw induces inflammatory pain behaviors that persist for at least 8 days. CFA treatment also leads to the accumulation of inflammatory cytokines in paw tissue at the site of injury, which, if unresolved, can lead to formation of fibrotic tissue. The extent of inflammatory response to CFA can be assessed by quantification of inflammatory cytokines in paw skin lysate, and inflammatory pain behaviors by mechanical allodynia (von Frey test) and thermal hyperalgesia (Hargreaves test).
(§2) In one study, Compound 2a was tested for its ability to reduce inflammatory pain behaviors in the CFA inflammation model. On study day 0, […] of CFA was administered subcutaneously in the plantar of the right hind paw. Animals were treated daily with Compound 2a in solution via oral gavage (PO) at doses of 1, 0.1, and 0.025 mg/kg. Treatment began before CFA injection on study day −1 and continued through study day 8.
Mechanical allodynia was measured using the von Frey test. In this test, rats were placed on a wire mesh and a series of filaments designed to deliver probing force ranging from 4 to 26 grams were applied to the mid-plantar surface of the right hind paw. Animals indicated pain response by lifting the probed paw. The minimal force required to elicit the withdrawal response was recorded as the paw withdrawal threshold (PWT). Von Frey testing was performed 1 hour after Compound 2a dosing on study day 1, 3, and 7, and was also tested pre-dosing on day 7. Statistical analysis was performed using a 1-way ANOVA with Tukey post-test. A p-value below 0.05 was considered statistically significant. Control animals stimulated with CFA but treated with only vehicle had high sensitivity to mechanical stimulation compared to normal control animals.
(§3) In another study, Compounds 1a, 5a, and 6a were similarly tested against CFA-induced inflammatory stimulation in the right hind foot for their ability to reduce pain behaviors. This study also included quantification of inflammatory cytokine expression in paw skin lysate. Inflammatory pain stimulation with CFA injection and assessment of mechanical and thermal pain behaviors were performed as described above, with the exception that only post-dose pain behavior testing is reported.
(§4) Intraplantar CFA injection occurred at day 0. Treatment with Compounds 1a, 5a, and 6a occurred at days −2, 1, 3, and 7. At day 8, the rats were terminated and cytokine levels were measured in paw skin and plasma. Tissue from paw bone, joint, and muscle were obtained for H&E staining and analysis. Cytokine levels in test compound-treated animals were compared to CFA-stimulated animals. Analytes included interleukin 4 (IL-4), tumor necrosis factor alpha (TNF-α) and interferon gamma (IFN-γ). Statistical analysis consisted of 1-way ANOVA followed by Dunnett's multiple comparisons post-test. Mechanical allodynia and thermal hyperalgesia were tested 1 hour post-dosing on days 1, 3, and 7. PWT refers to […] paw withdrawal threshold where a higher value corresponds to a higher pain threshold. PWL refers to […] paw withdrawal latency where a higher value corresponds to a higher pain threshold.

CFA-stimulated rats [2] = assay: CFA inflammatory pain model, cytokine expression in paw skin; assay type: in vivo; set-up: key to IFN-γ expression in paw skin, change compared to CFA alone / IL-4 expression in paw skin, change compared to CFA alone / TNF-α expression in paw skin, change compared to CFA alone: NS = no statistically significant change in expression compared to CFA alone; + = statistically significant change in expression compared to CFA alone, p < 0.05; conditions: for IFN-γ expression in paw skin, change compared to CFA alone / IL-4 expression in paw skin, change compared to CFA alone / TNF-α expression in paw skin, change compared to CFA alone: day 8
Method: as §1, §3, §4

[3] = tested on: THP-1-differentiated macrophages; assay: Pro-inflammatory cytokine expression in LPS-challenged THP-1-differentiated macrophages; assay type: cell-based, human; set-up: key to IL-6, significant reduction in culture supernatant vs LPS treatment / TNF-α, significant reduction in culture supernatant vs LPS treatment / IL-1β, significant reduction in culture supernatant vs LPS treatment: “NS” indicates a non-significant reduction in the indicated cytokine; “+” indicates a p value <0.05 in Tukey post test; “++” indicates a p value <0.01 in Tukey post test; conditions: for IL-1β, significant reduction in culture supernatant vs LPS treatment / IL-6, significant reduction in culture supernatant vs LPS treatment / TNF-α, significant reduction in culture supernatant vs LPS treatment: 20 min pre-treatment, 24 hrs LPS
Method: Differentiation with PMA causes THP-1 monocyte cells to acquire functional and morphological resemblance to macrophages. LPS interacts with THP-1 differentiated macrophage through the toll-like receptor 4, triggering the inflammatory response and stimulating pro-inflammatory cytokine release and eventually leading to cellular death. Compounds were tested to determine their anti-inflammatory effects on LPS-challenged macrophage cultures. THP-1-differentiated macrophages were treated with test compounds for 20 minutes, followed by 24 hrs of LPS challenge. Culture supernatants were then collected to analyzed for the presence of pro-inflammatory cytokines: […], interleukin 6 (IL-6) and tumor necrosis factor α (TNF-α).
Cytokine quantification in cell culture supernatants was accomplished by HTRF kits to assess levels of IL-1β (Human IL-1β kit, #62HIL1BPEG, Cisbio) and IL-6 (Human IL-6 kit, 62HIL06PET, Cisbio), and by ELISA to determine the levels of TNF-α (Human TNF-α ELISA kit, KHC3011, ThermoFisher).
Data analysis was performed via 1-way ANOVA with Tukey post-test compared to LPS treatment cultures using Prism statistical software (GraphPad). Tabular data indicates significance of reduction in culture supernatants for the indicated analyte at the indicated doses.

CFA-stimulated rats [4] = assay: CFA inflammatory pain model, thermal hyperalgesia (Hargreaves method); assay type: in vivo; conditions: Day 5, 1 hour pre-dosing; data not shown
CFA-stimulated rats [5] = assay: as above; assay type: in vivo; set-up: key to Thermal Hyperalgesia, change in sensitivity compared to CFA alone / Thermal Hyperalgesia, significant reduction in pain behavior vs CFA alone: NS = no statistically significant change in sensitivity compared to CFA alone; + = statistically significant change in sensitivity compared to CFA alone, p < 0.05
Method: as §1, §2
Thermal hyperalgesia was measured using the Hargreaves method. A temperature ramp was applied to the right hind paw and the paw withdrawal latency (PWL) was recorded as a measure of sensitivity to thermal stimulation. […] Statistical analysis was performed using a 1-way ANOVA with Tukey post-test. A p-value below 0.05 was considered statistically significant.
as §3, §4

[6] = 2.5 mg/kg PO, Day 1, 1 h post-dose
[7] = 2.5 mg/kg PO, Day 3, 1 h post-dose
[8] = 2.5 mg/kg PO, Day 7, 1 h post-dose
[9] = 10 mg/kg PO, Day 1, 1 h post-dose
[10] = 10 mg/kg PO, Day 3, 1 h post-dose
[11] = 10 mg/kg PO, Day 7, 1 h post-dose

With `CCC(C)CN1CC2N(Cc3ccc(OC(F)F)cc3)CCC(=O)N2[C@@H](C)C1=O` (some centres unmarked) [Compound 6a] the “Mechanical Allodynia, significant reduction in pain behavior vs CFA alone” value (CFA-stimulated rats [1]; [6]) was “NS”, the “Mechanical Allodynia, significant reduction in pain behavior vs CFA alone” value (CFA-stimulated rats [1]; [7]) was “NS” and the “Mechanical Allodynia, significant reduction in pain behavior vs CFA alone” value (CFA-stimulated rats [1]; [8]) was “NS”. The “Mechanical Allodynia, significant reduction in pain behavior vs CFA alone” value (CFA-stimulated rats [1]; [9]) was “NS”, the “Mechanical Allodynia, significant reduction in pain behavior vs CFA alone” value (CFA-stimulated rats [1]; [10]) was “NS” and the “Mechanical Allodynia, significant reduction in pain behavior vs CFA alone” value (CFA-stimulated rats [1]; [11]) was “NS”. For the same molecule, the “IFN-γ expression in paw skin, change compared to CFA alone” value (CFA-stimulated rats [2]; 2.5 mg/kg PO) was “NS”, the “IL-4 expression in paw skin, change compared to CFA alone” value (CFA-stimulated rats [2]; 2.5 mg/kg PO) was “+ (+ = statistically significant change in expression compared to CFA alone, p < 0.05)” and the “TNF-α expression in paw skin, change compared to CFA alone” value (CFA-stimulated rats [2]; 2.5 mg/kg PO) was “+ (+ = statistically significant change in expression compared to CFA alone, p < 0.05)”. The “IFN-γ expression in paw skin, change compared to CFA alone” value (CFA-stimulated rats [2]; 10 mg/kg PO) was “NS”, the “IL-4 expression in paw skin, change compared to CFA alone” value (CFA-stimulated rats [2]; 10 mg/kg PO) was “NS” and the “TNF-α expression in paw skin, change compared to CFA alone” value (CFA-stimulated rats [2]; 10 mg/kg PO) was “NS”. For the same molecule, the “IFN-γ expression in paw skin” value (CFA-stimulated rats [2]; both tested doses) was “no effect”, the “IL-1β, significant reduction in culture supernatant vs LPS treatment” value (“IL-1β, significant reduction” below) ([3]; 0.1 nM) was “NS” and the “IL-6, significant reduction in culture supernatant vs LPS treatment” value (“IL-6, significant reduction” below) ([3]; 0.1 nM) was “NS”. For the same molecule, the “TNF-α, significant reduction in culture supernatant vs LPS treatment” value (shortened to “TNF-α, significant reduction”) ([3]; 0.1 nM) was “NS”, the “IL-1β, significant reduction” value ([3]; 10 nM) was “NS” and the “IL-6, significant reduction” value ([3]; 10 nM) was “NS”. For the same molecule, the “TNF-α, significant reduction” value ([3]; 10 nM) was “NS”, the “IL-1β, significant reduction” value ([3]; 1000 nM) was “+ (“+” indicates a p value <0.05 in Tukey post test)” and the “IL-6, significant reduction” value ([3]; 1000 nM) was “NS”. The “TNF-α, significant reduction” value ([3]; 1000 nM) was “+ (“+” indicates a p value <0.05 in Tukey post test)”, the “expression of IL-1β and TNF-α” value ([3]; at at least one tested dose) was “significantly reduced” and the “PWL (paw withdrawal latency)” value (CFA-stimulated rats [4]) was “statistically significant increase”. The “Thermal Hyperalgesia, significant reduction in pain behavior vs CFA alone” value (CFA-stimulated rats [5]; [6]) was “NS”, the “Thermal Hyperalgesia, significant reduction in pain behavior vs CFA alone” value (CFA-stimulated rats [5]; [7]) was “NS” and the “Thermal Hyperalgesia, significant reduction in pain behavior vs CFA alone” value (CFA-stimulated rats [5]; [8]) was “+ (+ = statistically significant change in sensitivity compared to CFA alone, p < 0.05)”. The “Thermal Hyperalgesia, significant reduction in pain behavior vs CFA alone” value (CFA-stimulated rats [5]; [9]) was “NS”, the “Thermal Hyperalgesia, significant reduction in pain behavior vs CFA alone” value (CFA-stimulated rats [5]; [10]) was “NS” and the “Thermal Hyperalgesia, significant reduction in pain behavior vs CFA alone” value (CFA-stimulated rats [5]; [11]) was “+ (+ = statistically significant change in sensitivity compared to CFA alone, p < 0.05)”. For the same molecule, the “study days on which thermal sensitivity was reduced” value (CFA-stimulated rats [5]; PO, post-dose testing, any tested dose) was “study day 7” and the “PWL (paw withdrawal latency) vs CFA+vehicle” value (CFA-stimulated rats [5]; day 7 at each dose, data not shown) was “statistically significant increase”.

Source: patent US20250288587A1, “Methods of Treating Fibrosis” (Athira Pharma, Inc., priority 2022, published 2025)
